A word on the EC50: it is the concentration that produces a half-maximal response. Broadly, the CC50 is the concentration at which the toxic effect on the cells reaches its halfway point. Usually AC50 stands for the concentration at which the activity in the assay is half-maximal.

The values that follow come from ChEMBL document CHEMBL1201862, “PubChem BioAssay data set” (2004).

Assay [1] deals with T1, Tyrosine-protein phosphatase non-receptor type 7 (Homo sapiens, UniProt P35236).
T1 sequence (P35236 whole entry): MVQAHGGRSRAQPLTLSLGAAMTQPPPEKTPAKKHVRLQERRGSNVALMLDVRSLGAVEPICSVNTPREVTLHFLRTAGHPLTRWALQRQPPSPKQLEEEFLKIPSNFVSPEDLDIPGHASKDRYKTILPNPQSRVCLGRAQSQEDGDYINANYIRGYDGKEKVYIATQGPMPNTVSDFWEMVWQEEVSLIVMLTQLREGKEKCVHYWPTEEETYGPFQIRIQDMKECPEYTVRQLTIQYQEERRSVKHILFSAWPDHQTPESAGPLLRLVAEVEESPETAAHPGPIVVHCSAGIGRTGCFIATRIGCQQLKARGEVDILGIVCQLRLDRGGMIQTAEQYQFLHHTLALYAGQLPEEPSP
Kind of assay: SAR analysis of chemical inhibitors of HePTP using a Fluorescent assay - Set 2. [Related pubchem assays (depositor defined):AID1059, AID1077, AID1661, AID2085, AID521]. The assay is classed as functional.

For assay [2], the target named is T2, Dual specificity protein phosphatase 3 (Homo sapiens, UniProt P51452). Kind of assay: SAR VHR1 Fluorescent Assay for In Vitro dose response studies Set 2. [Related pubchem assays (depositor defined):AID1654, AID1661, AID1878]. The assay is classed as functional.
The target of assay [3] is Tyrosine-protein phosphatase non-receptor type 11 (Homo sapiens, UniProt Q06124). As to the kind of experiment: PTPN11 enzyme inhibitors – biochemical, selectivity assay for STEP inhibitor project, dose response (AID 602367). The assay is classed as functional. The following applies: read-out: IC50_Mean.
In assay [4] the target is T2, Dual specificity protein phosphatase 3. As to the kind of experiment: VHR phosphatase inhibition, dose response, selectivity assay for STEP inhibitor project, biochemical (AID 602374). The conditions noted are these: read-out: IC50_Mean. The assay is classed as functional.
In assay [5] the target is Tyrosine-protein phosphatase non-receptor type 5 (Homo sapiens, UniProt P54829). Kind of assay: PTPN5 enzyme inhibition – biochemical, fluorescence intensity, uHTS hits, confirmation (AID 602372). The assay is classed as functional. The following applies: read-out: IC50_Mean.
Assay [6] relates to HEK293. Kind of assay: cells. The assay is classed as functional, cell-based. The conditions noted are these: Homo sapiens.
Assay [7] addresses T3, Zinc finger protein mex-5 (Caenorhabditis elegans, UniProt Q9XUB2).
T3 sequence (Q9XUB2 whole entry): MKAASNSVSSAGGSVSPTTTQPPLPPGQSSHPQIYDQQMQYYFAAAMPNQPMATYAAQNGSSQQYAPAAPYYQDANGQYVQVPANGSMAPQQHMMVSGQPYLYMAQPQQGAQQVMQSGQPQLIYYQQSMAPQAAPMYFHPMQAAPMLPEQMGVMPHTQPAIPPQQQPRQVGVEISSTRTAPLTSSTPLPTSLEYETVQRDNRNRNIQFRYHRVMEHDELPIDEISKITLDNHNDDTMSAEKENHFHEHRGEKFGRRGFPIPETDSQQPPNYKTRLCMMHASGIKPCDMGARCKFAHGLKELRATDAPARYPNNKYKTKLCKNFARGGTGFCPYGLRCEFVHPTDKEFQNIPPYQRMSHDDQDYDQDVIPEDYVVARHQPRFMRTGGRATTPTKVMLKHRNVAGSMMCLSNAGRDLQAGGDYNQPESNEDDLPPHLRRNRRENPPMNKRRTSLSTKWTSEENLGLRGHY
Kind of assay: potency of MEX-5 RNA-binding blockers – biochemical, C. elegans, fluorescence polarization, dose response (AID 1960). On the technique in general: In fluorescence polarisation assays a small probe gives low polarisation when free and higher when bound to something large.

The subject of assay [8] is HEK293. As to the kind of experiment: cells. The assay is classed as functional, cell-based. The following applies: Homo sapiens. This is another data set of the same source.
Assay [9] concerns the target T4, RNA-binding protein pos-1 (Caenorhabditis elegans, UniProt G5EF15).
T4 sequence (G5EF15 whole entry): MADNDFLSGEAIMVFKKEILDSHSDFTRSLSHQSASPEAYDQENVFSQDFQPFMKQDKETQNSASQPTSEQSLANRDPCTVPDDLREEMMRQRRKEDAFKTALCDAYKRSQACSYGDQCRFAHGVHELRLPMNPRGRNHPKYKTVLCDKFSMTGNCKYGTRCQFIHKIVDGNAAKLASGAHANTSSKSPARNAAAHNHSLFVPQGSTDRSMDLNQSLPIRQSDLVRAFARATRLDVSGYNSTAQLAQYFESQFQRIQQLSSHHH
As to the kind of experiment: disruptors of C. elegans POS-1 RNA interaction – biochemical, fluorescence polarization, dose response (AID 1964).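 Also: purified POS-1 fused to maltose binding protein made in E. coli; potency of compounds blocking POS-1 binding to fluorescent RNA.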

In assay [10] the test system is HEK293. As to the kind of experiment: inhibition of NOD1-driven NF-kB reporter – cell-based, luminescence, uHTS, primary screen (AID 1578). The assay is classed as functional. The conditions noted are these: Homo sapiens.
The target in assay [11] is T5, Nucleotide-binding oligomerization domain-containing protein 2 (Homo sapiens, UniProt Q9HC29). As to the kind of experiment: inhibition of NOD2-driven NF-kB reporter – cell-based, luminescence, uHTS, HEK293 (AID 1566). The assay is classed as functional.
A short description of assay [12]: viability loss in HeLa cells – cytotoxicity control for MgcRacGAP inhibitor project, dose response (AID 624300). The assay is classed as functional.
The target in assay [13] is T6, Microphthalmia-associated transcription factor (Homo sapiens, UniProt O75030).
T6 sequence (O75030 whole entry): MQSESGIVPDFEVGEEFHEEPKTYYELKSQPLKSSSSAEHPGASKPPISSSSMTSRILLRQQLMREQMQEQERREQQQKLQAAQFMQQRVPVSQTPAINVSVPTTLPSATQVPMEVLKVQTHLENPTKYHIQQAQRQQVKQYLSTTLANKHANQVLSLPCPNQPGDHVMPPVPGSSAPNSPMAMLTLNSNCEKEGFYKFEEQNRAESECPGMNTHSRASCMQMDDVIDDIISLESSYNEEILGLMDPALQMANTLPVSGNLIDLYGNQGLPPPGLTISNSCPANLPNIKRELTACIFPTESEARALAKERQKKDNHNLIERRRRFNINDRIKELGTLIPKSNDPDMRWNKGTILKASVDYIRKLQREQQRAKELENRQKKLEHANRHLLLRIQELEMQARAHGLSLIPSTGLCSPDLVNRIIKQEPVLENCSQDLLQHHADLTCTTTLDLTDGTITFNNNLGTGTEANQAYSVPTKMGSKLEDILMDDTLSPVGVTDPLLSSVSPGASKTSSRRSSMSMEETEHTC
As to the kind of experiment: reducers of TRPM1 reporter luminescence, concentration series – cell-based, SK-MEL-5, cherry-picked, set 3, MITF inhibitor project, dose response (AID 493073).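 Also: SK-MEL-5 melanoma cells with luciferase driven by the MITF target TRPM1 promoter.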 The assay is classed as functional.

Assay [14] deals with HEK293. As to the kind of experiment: NOD2 signaling inhibitors in MDP-stimulated cells, cell-based, uHTS, luminescence (AID 2001). The assay is classed as functional. The conditions noted are these: Homo sapiens.
For assay [15], the system named is HEK293. As to the kind of experiment: cells. The conditions noted are these: Homo sapiens. The assay is classed as functional, cell-based. The source holds these as a separate data set.
Assay [16] has as its system Vero. Kind of assay: cells. The assay is classed as functional. The conditions noted are these: Chlorocebus sabaeus.
Assay [17] addresses T7, Nucleotide-binding oligomerization domain-containing protein 1 (Homo sapiens, UniProt Q9Y239).
T7 sequence (Q9Y239 whole entry): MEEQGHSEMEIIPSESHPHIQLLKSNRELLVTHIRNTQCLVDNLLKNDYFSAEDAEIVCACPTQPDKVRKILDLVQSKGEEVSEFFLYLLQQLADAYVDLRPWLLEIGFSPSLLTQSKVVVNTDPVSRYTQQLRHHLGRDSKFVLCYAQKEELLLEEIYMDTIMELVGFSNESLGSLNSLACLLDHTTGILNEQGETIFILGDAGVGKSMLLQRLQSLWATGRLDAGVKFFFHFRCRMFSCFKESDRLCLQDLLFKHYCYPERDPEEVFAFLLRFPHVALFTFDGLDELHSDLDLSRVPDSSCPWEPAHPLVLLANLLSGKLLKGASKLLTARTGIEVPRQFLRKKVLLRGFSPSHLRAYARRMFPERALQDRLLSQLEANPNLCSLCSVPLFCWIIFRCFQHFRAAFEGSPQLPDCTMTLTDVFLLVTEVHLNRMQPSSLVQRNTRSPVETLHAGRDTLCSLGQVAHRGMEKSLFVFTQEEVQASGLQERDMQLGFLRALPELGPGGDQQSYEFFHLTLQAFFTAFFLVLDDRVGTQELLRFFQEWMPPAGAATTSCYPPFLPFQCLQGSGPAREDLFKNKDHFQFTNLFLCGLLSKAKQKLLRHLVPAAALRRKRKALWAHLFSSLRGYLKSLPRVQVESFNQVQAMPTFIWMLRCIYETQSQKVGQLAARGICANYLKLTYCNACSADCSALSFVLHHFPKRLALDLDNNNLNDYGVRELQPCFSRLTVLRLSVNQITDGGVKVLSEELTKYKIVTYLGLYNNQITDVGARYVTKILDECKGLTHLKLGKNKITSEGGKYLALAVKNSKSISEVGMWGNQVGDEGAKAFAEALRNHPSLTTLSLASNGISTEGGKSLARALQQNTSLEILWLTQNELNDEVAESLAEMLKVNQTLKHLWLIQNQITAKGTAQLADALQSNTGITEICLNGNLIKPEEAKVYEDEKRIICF
Kind of assay: blockers of NOD1 pathway activity – revised, SAR follow-up (AID 2333). The assay is classed as functional.

Assay [18] has as its target Phospholipase A2 (Homo sapiens, UniProt P04054). The assay is classed as functional.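 Also: confirmatory dose-response counterscreen on phospholipase A2, testing hits that came from an ultra-high-throughput screen for ATG4B inhibitors.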
Assay [19] deals with T8, Cysteine protease ATG4B (Homo sapiens, UniProt Q9Y4P1).
T8 sequence (Q9Y4P1 whole entry): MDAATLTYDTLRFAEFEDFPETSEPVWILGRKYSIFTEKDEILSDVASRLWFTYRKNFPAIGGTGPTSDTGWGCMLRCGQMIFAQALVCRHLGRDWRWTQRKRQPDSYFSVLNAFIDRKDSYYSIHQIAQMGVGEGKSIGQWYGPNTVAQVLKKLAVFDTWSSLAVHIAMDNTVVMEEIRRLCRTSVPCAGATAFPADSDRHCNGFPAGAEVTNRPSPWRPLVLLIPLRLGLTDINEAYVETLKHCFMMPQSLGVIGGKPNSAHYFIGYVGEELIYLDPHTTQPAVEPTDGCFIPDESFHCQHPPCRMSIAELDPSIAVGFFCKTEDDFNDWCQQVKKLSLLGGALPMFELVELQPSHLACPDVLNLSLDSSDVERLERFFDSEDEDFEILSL
The assay is classed as functional.

Assay [20] deals with Tumor necrosis factor (Homo sapiens, UniProt P01375). As to the kind of experiment: analog potency on TNFa NF-kB signaling – cell-based, revised, SAR follow-up (AID 2337). The assay is classed as functional.
Assay [21] concerns the target T5, Nucleotide-binding oligomerization domain-containing protein 2. Kind of assay: PubChem AID 2334. The assay is classed as functional.
Assay [22] relates to HEK293. As to the kind of experiment: cells. The following applies: Homo sapiens.
Assay [23] is described as follows: viability of uninfected HEp-2 cells – cell-based, HTS, cytotoxicity control for RSV inhibitor project, dose response (AID 2410). The assay is classed as functional. The following applies: human respiratory syncytial virus.

Activity calls are given as the source filed them. Bounds are passed on as bounds.

T5 sequence (Q9HC29 whole entry, the tested form may be a part): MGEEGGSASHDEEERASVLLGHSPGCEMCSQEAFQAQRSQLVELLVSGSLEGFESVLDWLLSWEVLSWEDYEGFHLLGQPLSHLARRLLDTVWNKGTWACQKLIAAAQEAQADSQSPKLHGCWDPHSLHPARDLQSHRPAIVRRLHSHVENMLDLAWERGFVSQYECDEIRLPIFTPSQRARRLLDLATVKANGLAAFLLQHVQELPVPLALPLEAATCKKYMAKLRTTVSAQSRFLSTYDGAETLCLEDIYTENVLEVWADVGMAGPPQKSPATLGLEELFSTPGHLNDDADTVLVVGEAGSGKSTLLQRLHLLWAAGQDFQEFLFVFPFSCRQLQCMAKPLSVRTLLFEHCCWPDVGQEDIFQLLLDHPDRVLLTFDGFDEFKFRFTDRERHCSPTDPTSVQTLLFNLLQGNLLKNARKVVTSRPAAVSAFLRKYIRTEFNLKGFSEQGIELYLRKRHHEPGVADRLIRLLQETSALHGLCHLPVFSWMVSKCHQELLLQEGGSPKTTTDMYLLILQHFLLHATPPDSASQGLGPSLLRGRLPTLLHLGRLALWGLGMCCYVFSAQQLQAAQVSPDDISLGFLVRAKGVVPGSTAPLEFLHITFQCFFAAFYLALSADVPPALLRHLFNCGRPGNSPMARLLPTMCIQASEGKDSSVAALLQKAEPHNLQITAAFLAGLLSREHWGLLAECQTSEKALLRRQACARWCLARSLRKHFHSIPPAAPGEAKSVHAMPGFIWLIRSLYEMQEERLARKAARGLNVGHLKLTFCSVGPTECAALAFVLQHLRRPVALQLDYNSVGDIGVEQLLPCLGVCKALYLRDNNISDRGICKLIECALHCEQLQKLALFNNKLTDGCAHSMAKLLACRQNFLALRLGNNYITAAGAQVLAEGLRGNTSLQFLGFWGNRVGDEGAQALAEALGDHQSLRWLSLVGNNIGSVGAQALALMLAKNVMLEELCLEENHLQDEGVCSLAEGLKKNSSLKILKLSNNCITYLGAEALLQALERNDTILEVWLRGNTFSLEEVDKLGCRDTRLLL
T2 sequence (P51452 whole entry): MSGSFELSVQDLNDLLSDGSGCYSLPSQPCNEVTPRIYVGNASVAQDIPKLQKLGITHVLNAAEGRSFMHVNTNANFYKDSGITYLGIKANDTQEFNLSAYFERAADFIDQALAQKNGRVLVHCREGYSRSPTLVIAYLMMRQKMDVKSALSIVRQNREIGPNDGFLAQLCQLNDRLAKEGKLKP
Tyrosine-protein phosphatase non-receptor type 5, sequence (P54829 whole entry): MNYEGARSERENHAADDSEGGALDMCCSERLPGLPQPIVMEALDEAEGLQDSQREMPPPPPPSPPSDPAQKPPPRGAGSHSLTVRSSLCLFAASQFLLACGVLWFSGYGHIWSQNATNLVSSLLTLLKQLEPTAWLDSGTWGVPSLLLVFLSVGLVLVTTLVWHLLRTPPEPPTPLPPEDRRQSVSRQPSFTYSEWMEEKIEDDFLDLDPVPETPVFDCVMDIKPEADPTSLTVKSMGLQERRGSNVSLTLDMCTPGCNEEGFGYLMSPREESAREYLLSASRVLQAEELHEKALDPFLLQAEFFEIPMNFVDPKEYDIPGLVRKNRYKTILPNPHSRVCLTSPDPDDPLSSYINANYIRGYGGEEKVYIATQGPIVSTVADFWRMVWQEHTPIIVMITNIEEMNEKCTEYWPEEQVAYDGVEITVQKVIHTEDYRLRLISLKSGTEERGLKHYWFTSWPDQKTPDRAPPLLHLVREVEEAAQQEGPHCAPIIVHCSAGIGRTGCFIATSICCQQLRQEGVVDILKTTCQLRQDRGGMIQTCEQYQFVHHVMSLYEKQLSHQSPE
Tyrosine-protein phosphatase non-receptor type 11, sequence (Q06124 whole entry): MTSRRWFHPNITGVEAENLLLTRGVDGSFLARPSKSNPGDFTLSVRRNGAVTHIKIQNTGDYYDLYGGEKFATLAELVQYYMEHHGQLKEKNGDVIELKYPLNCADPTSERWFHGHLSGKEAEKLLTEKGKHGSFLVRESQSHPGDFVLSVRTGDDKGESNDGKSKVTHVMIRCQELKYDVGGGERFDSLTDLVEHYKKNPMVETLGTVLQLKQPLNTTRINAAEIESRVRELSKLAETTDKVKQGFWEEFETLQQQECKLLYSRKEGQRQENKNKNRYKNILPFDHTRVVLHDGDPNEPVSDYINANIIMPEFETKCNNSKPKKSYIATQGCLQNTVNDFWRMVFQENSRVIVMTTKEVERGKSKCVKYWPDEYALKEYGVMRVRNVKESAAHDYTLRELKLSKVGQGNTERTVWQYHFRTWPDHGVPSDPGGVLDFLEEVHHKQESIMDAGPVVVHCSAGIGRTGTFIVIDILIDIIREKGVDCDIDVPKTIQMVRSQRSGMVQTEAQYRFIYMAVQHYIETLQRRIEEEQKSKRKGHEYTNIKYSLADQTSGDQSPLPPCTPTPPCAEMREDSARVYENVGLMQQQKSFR
Tumor necrosis factor, sequence (P01375 whole entry, the tested form may be a part): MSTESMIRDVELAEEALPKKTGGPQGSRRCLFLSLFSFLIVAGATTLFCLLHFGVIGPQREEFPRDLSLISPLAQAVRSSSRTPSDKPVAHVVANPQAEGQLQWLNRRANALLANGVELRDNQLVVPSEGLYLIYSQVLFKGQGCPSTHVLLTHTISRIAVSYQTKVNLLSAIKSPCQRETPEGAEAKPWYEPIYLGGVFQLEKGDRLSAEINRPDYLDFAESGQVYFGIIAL
Phospholipase A2, sequence (P04054 whole entry): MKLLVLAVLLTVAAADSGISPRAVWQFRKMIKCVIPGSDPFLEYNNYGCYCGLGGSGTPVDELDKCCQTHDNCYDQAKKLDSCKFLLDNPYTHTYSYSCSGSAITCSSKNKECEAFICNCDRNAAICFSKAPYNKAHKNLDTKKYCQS

With `CN1CCN(C(S)=Nc2ccc(S(N)(=O)=O)cc2)CC1`, the IC50 in [1] was 27.4 µM (active); in assay [2], 15.4 µM (active); in [3] it was 6.54 µM (active); in assay [4], 1.32 µM (active); in [5], 27.8 µM (inactive).

With `NS(=O)(=O)c1ccc(NC(=S)N2CCN(c3ccccc3)CC2)cc1`, the IC50 is 72.8 µM (active) in assay [1] and 67.2 µM (active) in assay [2].

For the molecule `C=CCN1C(=O)NC(=O)/C(=C/C=C/c2ccccc2)C1=O`, the IC50 was 9.21 µM (active) in assay [6], > 20 µM (inactive) in assay [8], 12.4 µM (inactive) in [14] and > 20 µM (inactive) in assay [15]. In addition, the EC50 in [7] was > 300 µM (not active); in assay [9], > 300 µM (not active); in [10], > 20 µM (inactive); in assay [11], > 20 µM (inactive). Also, the CC50 in assay [12] is 75.4 µM (active); in assay [16], > 25 µM (active). Moreover, in [13], the AC50 was 5.94 µM (active).

With `O=C(CSc1nc2ccccc2c(=O)n1Cc1ccccc1)Nc1ccc(Br)cc1C(=O)O`, the IC50 was 5.99 µM (active) in [17]; > 20 µM (inactive) in assay [6]; 12.1 µM (active) in [18]; 13.9 µM (active) in assay [19]; 5.7 µM (active) in assay [20]; > 20 µM (inactive) in assay [8]. The IC50 is 7.04 µM (active) in [21], > 20 µM (inactive) in [22], 10.2 µM (inactive) in [14] and > 20 µM (inactive) in assay [15]. In addition, the EC50 in assay [10] is 6.11 µM (active); in assay [11] it was 7.92 µM (active). In assay [23], the CC50 is 11.1 µM (active).
